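Step 1: Grow cells in 96-well plates. Step 2: Expose to compound for 48 hours at 5 concentrations. Step 3: Interpolate endpoints linearly; if unreached, use highest concentration. GI50 marks 50% less growth.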 Active and inactive are the calls of the source. No stated cut-off is given here; in the data, active = GI50 up to about 1.1 µM and inactive = higher.
Assays:
Experiment in all cases: inhibition of tumour cell growth, NCI panel, 48 h
786-0 = system: 786-0
RXF 393 = system: RXF 393
BT-549 = system: BT-549
LOX IMVI = system: LOX IMVI
TK-10 = system: TK-10
A549 = system: A549
SR = system: SR
HT-29 = system: HT-29
A498 = system: A498
UACC-62 = system: UACC-62
SNB-19 = system: SNB-19
OVCAR-8 = system: OVCAR-8
ACHN = system: ACHN
PC-3 = system: PC-3
SK-MEL-5 = system: SK-MEL-5
Malme-3M = system: Malme-3M
SK-MEL-2 = system: SK-MEL-2
NCI-H226 = system: NCI-H226
SN12C = system: SN12C
MOLT-4 = system: MOLT-4
HL-60 = system: HL-60
NCI/ADR-RES = system: NCI/ADR-RES
NCI-H23 = system: NCI-H23
SF-295 = system: SF-295
T47D = system: T47D
OVCAR-3 = system: OVCAR-3
SK-MEL-28 = system: SK-MEL-28
COLO 205 = system: COLO 205
OVCAR-4 = system: OVCAR-4
MCF7 = system: MCF7
CAKI-1 = system: CAKI-1
HOP-62 = system: HOP-62
EKVX = system: EKVX
UACC-257 = system: UACC-257
IGROV-1 = system: IGROV-1
SK-OV-3 = system: SK-OV-3
KM12 = system: KM12
HCC 2998 = system: HCC 2998
DU-145 = system: DU-145
OVCAR-5 = system: OVCAR-5
HCT-116 = system: HCT-116
M14 = system: M14
HOP-92 = system: HOP-92
Hs-578T = system: Hs-578T
CCRF-CEM = system: CCRF-CEM
HCT-15 = system: HCT-15
K562 = system: K562
NCI-H522 = system: NCI-H522
NCI-H460 = system: NCI-H460
RPMI-8226 = system: RPMI-8226
SF-268 = system: SF-268
SF-539 = system: SF-539
MDA-MB-435 = system: MDA-MB-435
SW-620 = system: SW-620
U-251 = system: U-251
MDA-N = system: MDA-N
SNB-75 = system: SNB-75
UO-31 = system: UO-31
MDA-MB-231 = system: MDA-MB-231

N=C(N)N/N=C/c1c(-c2ccc(Cl)cc2)nc2n1CCS2
GI50 (786-0): 4.31 µM (inactive)
GI50 (RXF 393): 9.29 µM (inactive)
GI50 (BT-549): 14.5 µM (inactive)
GI50 (LOX IMVI): 4.49 µM (inactive)
GI50 (TK-10): 15.7 µM (inactive)
GI50 (A549): 10 µM (inactive)
GI50 (SR): 7.16 µM (inactive)
GI50 (HT-29): 8.87 µM (inactive)
GI50 (A498): 12.7 µM (inactive)
GI50 (UACC-62): 11.9 µM (inactive)
GI50 (SNB-19): 15.6 µM (inactive)
GI50 (OVCAR-8): 15.2 µM (inactive)
GI50 (ACHN): 14.1 µM (inactive)
GI50 (PC-3): 4.14 µM (inactive)
GI50 (SK-MEL-5): 3.32 µM (inactive)
GI50 (Malme-3M): 14.6 µM (inactive)
GI50 (SK-MEL-2): 10.8 µM (inactive)
GI50 (NCI-H226): 20.1 µM (inactive)
GI50 (SN12C): 14.3 µM (inactive)
GI50 (MOLT-4): 2.68 µM (inactive)
GI50 (HL-60): 31.1 µM (inactive)
GI50 (NCI/ADR-RES): 16.4 µM (inactive)
GI50 (NCI-H23): > 10 µM (inactive)
GI50 (SF-295): 3.53 µM (inactive)
GI50 (T47D): 13.6 µM (inactive)
GI50 (OVCAR-3): 8.18 µM (inactive)
GI50 (SK-MEL-28): 12.7 µM (inactive)
GI50 (COLO 205): 4.38 µM (inactive)
GI50 (OVCAR-4): 15.3 µM (inactive)
GI50 (MCF7): 11.5 µM (inactive)
GI50 (CAKI-1): 14.8 µM (inactive)
GI50 (HOP-62): 12.6 µM (inactive)
GI50 (EKVX): 16.6 µM (inactive)
GI50 (UACC-257): 14.3 µM (inactive)
GI50 (IGROV-1): 13.9 µM (inactive)
GI50 (SK-OV-3): 13.9 µM (inactive)
GI50 (KM12): 10.9 µM (inactive)
GI50 (HCC 2998): 3.04 µM (inactive)
GI50 (DU-145): 12.8 µM (inactive)
GI50 (OVCAR-5): 15.1 µM (inactive)
GI50 (HCT-116): 4.25 µM (inactive)
GI50 (M14): 2.94 µM (inactive)
GI50 (HOP-92): 10.7 µM (inactive)
GI50 (Hs-578T): 24.3 µM (inactive)
GI50 (CCRF-CEM): 2.43 µM (inactive)
GI50 (HCT-15): 14.3 µM
GI50 (K562): 2.98 µM (inactive)
GI50 (NCI-H522): 12.8 µM (inactive)
GI50 (NCI-H460): 13.1 µM (inactive)
GI50 (RPMI-8226): 7.53 µM (inactive)
GI50 (SF-268): 11.5 µM (inactive)
GI50 (SF-539): 11.7 µM (inactive)
GI50 (MDA-MB-435): 11.9 µM (inactive)
GI50 (SW-620): 5.89 µM (inactive)
GI50 (U-251): 12.9 µM (inactive)
GI50 (MDA-N): 11 µM (inactive)
GI50 (SNB-75): 13.3 µM (inactive)
GI50 (UO-31): 12.7 µM (inactive)

Nc1ncnc2c1ncn2[C@@H]1C[C@H]1CO
GI50 (786-0): > 100 µM (inactive)
GI50 (BT-549): > 10 µM (inactive)
GI50 (LOX IMVI): > 100 µM (inactive)
GI50 (A549): > 100 µM (inactive)
GI50 (SR): > 100 µM (inactive)
GI50 (HT-29): > 100 µM (inactive)
GI50 (A498): > 100 µM (inactive)
GI50 (SNB-19): > 100 µM (inactive)
GI50 (OVCAR-8): > 100 µM (inactive)
GI50 (ACHN): > 100 µM (inactive)
GI50 (PC-3): > 100 µM (inactive)
GI50 (Malme-3M): > 100 µM (inactive)
GI50 (SK-MEL-2): > 100 µM (inactive)
GI50 (NCI-H226): > 100 µM (inactive)
GI50 (SN12C): > 100 µM (inactive)
GI50 (MOLT-4): > 100 µM (inactive)
GI50 (HL-60): > 100 µM (inactive)
GI50 (MDA-MB-231): > 100 µM (inactive)
GI50 (NCI/ADR-RES): > 100 µM (inactive)
GI50 (NCI-H23): > 100 µM (inactive)
GI50 (SF-295): > 100 µM (inactive)
GI50 (T47D): > 100 µM (inactive)
GI50 (OVCAR-3): 42 µM (inactive)
GI50 (MCF7): > 100 µM (inactive)
GI50 (HOP-62): > 100 µM (inactive)
GI50 (EKVX): > 100 µM (inactive)
GI50 (UACC-257): > 100 µM (inactive)
GI50 (KM12): > 100 µM (inactive)
GI50 (HCC 2998): > 100 µM (inactive)
GI50 (OVCAR-5): > 100 µM (inactive)
GI50 (HCT-116): > 100 µM (inactive)
GI50 (M14): > 100 µM (inactive)
GI50 (Hs-578T): > 100 µM (inactive)
GI50 (CCRF-CEM): > 100 µM (inactive)
GI50 (HCT-15): > 100 µM
GI50 (K562): > 100 µM (inactive)
GI50 (NCI-H522): > 100 µM (inactive)
GI50 (NCI-H460): > 100 µM (inactive)
GI50 (RPMI-8226): > 100 µM (inactive)
GI50 (SF-539): > 100 µM (inactive)
GI50 (MDA-MB-435): > 10 µM (inactive)
GI50 (SW-620): > 100 µM (inactive)
GI50 (U-251): > 100 µM (inactive)
GI50 (MDA-N): > 100 µM (inactive)
GI50 (UO-31): > 100 µM (inactive)

Reference: ChEMBL document CHEMBL1201862, “PubChem BioAssay data set” (2004)
